We go through six compounds from ChEMBL document CHEMBL5465560, “Selectivity Literature for EUbOPEN Chemogenomic Library” (2024).

The structures appear in SMILES notation.

The target of data set [1] is T1, Mitogen-activated protein kinase 12 (Homo sapiens) (UniProt P53778).
T1 sequence (whole entry): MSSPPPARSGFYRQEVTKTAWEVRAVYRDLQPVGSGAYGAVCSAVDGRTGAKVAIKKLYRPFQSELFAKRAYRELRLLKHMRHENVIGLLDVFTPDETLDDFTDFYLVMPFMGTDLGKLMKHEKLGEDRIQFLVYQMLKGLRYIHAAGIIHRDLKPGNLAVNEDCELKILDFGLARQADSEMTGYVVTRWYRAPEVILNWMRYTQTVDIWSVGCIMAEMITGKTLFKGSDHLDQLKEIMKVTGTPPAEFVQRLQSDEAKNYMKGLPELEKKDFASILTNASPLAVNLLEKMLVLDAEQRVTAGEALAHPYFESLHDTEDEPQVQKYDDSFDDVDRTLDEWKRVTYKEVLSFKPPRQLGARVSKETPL
The data set can be described thus: Selectivity interaction (ActivX KiNativ screen (ex vivo kinase selectivity in human PBMCs)) EUB0001619a MAPK12. Format: cell-based. Conditions: PBMC, at 1 µM.

In data set [2] the target is T2, Mitogen-activated protein kinase kinase kinase 19 (Homo sapiens) (UniProt Q56UN5).
T2 sequence (whole entry): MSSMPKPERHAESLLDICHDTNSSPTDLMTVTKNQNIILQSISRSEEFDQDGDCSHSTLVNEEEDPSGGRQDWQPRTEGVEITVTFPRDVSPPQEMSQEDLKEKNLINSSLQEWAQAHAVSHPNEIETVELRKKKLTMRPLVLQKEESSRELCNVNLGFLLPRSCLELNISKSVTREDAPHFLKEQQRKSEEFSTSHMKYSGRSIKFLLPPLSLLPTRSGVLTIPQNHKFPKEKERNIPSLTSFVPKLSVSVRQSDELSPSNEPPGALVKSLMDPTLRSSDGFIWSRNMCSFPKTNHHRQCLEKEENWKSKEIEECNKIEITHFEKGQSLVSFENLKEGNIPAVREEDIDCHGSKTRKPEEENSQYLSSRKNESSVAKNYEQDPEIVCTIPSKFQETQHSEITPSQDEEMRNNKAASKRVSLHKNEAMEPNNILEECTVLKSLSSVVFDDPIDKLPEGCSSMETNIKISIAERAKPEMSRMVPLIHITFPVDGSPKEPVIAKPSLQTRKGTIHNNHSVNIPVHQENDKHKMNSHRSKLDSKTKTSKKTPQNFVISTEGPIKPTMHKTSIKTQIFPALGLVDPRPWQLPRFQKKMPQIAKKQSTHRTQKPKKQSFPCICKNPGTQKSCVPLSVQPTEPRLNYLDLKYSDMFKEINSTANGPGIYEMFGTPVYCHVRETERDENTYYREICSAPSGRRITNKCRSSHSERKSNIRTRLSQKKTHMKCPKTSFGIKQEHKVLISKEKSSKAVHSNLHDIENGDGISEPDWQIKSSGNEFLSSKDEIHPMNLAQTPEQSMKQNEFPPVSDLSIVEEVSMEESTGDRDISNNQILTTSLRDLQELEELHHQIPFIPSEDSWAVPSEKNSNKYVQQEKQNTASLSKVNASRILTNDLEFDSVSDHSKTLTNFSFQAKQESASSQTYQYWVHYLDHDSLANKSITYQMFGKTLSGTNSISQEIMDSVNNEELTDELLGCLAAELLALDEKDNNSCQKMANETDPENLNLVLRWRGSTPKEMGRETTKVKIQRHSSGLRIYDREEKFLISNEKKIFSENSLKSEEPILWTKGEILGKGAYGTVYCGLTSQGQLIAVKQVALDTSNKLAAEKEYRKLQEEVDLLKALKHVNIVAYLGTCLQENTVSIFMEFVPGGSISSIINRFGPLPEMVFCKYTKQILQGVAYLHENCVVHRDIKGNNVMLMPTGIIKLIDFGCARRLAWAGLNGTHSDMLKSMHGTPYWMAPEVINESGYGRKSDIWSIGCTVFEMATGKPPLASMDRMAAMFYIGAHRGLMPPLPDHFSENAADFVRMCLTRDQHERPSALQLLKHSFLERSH
The data set can be described thus: Selectivity interaction (KinomeScan (DiscoverX)) EUB0000666a MAP3K19. Particulars: at 10 µM.

The target of data set [3] is T3, cAMP-dependent protein kinase catalytic subunit PRKX (Homo sapiens) (UniProt P51817).
T3 sequence (whole entry): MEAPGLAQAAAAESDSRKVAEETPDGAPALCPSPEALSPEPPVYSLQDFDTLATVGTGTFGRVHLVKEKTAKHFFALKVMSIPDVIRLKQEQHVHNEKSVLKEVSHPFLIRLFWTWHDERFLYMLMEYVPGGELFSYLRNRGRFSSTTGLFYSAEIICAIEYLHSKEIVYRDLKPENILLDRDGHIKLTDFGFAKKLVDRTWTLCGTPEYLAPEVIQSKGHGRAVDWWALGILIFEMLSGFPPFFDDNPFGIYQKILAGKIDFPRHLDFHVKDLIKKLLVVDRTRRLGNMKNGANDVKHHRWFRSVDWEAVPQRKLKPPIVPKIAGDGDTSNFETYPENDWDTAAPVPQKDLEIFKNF
The data set can be described thus: Selectivity interaction (Kinase panel (Invitrogen)) EUB0000639a PRKX. Particulars: at 200 nM.

The target of data set [4] is Cyclin-dependent kinase 7 (Homo sapiens, UniProt P50613). The experiment in a line: Selectivity interaction (ActivX KiNativ screen (kinase selectivity in THP-1 cell lysates)) EUB0000639a CDK7. Format: subcellular. Particulars: lysate, at 1 µM.
Data set [5] concerns the target Serine/threonine-protein kinase PAK 6 (Homo sapiens) (UniProt Q9NQU5). The experiment in a line: Selectivity interaction (Ambit KINOMEscan and KiNATiv profiling in Jurkat cells) EUB0000090b PAK6. Format: cell-based. Conditions: at 1 µM.
For data set [6], the target named is TGF-beta receptor type-2 (Homo sapiens) (UniProt P37173). The data set can be described thus: Selectivity interaction (KinomeScan (DiscoverX)) EUB0001049a TGFBR2. Particulars: at 1 µM.
A further data set has as its target Nav1.5 (SCN5A) (Homo sapiens, UniProt Q14524). The data set can be described thus: Selectivity interaction (Panel of kinases, GPCRs, ion channels and transporters (enzymatic assay)) EUB0000223bCl SCN5A.

Chain of TGF-beta receptor type-2 (Homo sapiens) (P37173 whole entry): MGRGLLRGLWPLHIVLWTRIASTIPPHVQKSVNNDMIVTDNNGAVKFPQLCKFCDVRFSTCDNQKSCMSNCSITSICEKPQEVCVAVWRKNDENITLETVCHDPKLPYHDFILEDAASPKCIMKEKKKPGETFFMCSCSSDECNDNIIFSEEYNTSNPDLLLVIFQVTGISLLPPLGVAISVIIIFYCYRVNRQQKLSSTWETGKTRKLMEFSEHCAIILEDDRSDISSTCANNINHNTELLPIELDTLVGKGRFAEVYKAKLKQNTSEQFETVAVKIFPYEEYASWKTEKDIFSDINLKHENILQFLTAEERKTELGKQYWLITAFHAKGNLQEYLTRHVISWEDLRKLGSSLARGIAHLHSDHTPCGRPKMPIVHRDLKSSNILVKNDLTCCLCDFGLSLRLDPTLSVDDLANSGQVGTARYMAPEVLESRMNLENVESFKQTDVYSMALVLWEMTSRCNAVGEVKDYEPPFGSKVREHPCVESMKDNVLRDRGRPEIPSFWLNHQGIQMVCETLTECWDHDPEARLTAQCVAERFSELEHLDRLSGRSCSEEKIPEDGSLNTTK
Chain of Serine/threonine-protein kinase PAK 6 (Homo sapiens) (Q9NQU5 whole entry, looked up): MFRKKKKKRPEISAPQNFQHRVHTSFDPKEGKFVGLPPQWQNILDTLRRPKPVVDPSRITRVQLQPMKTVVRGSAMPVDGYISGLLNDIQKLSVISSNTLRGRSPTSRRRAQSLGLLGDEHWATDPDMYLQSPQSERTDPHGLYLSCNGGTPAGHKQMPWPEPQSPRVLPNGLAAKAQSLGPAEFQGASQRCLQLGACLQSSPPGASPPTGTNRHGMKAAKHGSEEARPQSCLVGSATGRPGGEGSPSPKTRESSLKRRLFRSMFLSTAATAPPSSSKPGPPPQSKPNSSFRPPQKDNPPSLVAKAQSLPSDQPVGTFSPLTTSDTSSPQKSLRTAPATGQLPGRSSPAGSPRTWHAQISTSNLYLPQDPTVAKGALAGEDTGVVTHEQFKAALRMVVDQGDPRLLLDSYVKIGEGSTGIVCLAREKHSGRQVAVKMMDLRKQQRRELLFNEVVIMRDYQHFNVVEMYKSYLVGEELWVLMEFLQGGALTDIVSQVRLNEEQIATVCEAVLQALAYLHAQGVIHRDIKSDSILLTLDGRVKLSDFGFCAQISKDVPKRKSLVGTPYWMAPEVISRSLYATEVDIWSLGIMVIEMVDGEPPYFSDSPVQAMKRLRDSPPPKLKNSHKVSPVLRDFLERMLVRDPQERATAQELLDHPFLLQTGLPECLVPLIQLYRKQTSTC
Chain of Nav1.5 (SCN5A) (Q14524 whole entry): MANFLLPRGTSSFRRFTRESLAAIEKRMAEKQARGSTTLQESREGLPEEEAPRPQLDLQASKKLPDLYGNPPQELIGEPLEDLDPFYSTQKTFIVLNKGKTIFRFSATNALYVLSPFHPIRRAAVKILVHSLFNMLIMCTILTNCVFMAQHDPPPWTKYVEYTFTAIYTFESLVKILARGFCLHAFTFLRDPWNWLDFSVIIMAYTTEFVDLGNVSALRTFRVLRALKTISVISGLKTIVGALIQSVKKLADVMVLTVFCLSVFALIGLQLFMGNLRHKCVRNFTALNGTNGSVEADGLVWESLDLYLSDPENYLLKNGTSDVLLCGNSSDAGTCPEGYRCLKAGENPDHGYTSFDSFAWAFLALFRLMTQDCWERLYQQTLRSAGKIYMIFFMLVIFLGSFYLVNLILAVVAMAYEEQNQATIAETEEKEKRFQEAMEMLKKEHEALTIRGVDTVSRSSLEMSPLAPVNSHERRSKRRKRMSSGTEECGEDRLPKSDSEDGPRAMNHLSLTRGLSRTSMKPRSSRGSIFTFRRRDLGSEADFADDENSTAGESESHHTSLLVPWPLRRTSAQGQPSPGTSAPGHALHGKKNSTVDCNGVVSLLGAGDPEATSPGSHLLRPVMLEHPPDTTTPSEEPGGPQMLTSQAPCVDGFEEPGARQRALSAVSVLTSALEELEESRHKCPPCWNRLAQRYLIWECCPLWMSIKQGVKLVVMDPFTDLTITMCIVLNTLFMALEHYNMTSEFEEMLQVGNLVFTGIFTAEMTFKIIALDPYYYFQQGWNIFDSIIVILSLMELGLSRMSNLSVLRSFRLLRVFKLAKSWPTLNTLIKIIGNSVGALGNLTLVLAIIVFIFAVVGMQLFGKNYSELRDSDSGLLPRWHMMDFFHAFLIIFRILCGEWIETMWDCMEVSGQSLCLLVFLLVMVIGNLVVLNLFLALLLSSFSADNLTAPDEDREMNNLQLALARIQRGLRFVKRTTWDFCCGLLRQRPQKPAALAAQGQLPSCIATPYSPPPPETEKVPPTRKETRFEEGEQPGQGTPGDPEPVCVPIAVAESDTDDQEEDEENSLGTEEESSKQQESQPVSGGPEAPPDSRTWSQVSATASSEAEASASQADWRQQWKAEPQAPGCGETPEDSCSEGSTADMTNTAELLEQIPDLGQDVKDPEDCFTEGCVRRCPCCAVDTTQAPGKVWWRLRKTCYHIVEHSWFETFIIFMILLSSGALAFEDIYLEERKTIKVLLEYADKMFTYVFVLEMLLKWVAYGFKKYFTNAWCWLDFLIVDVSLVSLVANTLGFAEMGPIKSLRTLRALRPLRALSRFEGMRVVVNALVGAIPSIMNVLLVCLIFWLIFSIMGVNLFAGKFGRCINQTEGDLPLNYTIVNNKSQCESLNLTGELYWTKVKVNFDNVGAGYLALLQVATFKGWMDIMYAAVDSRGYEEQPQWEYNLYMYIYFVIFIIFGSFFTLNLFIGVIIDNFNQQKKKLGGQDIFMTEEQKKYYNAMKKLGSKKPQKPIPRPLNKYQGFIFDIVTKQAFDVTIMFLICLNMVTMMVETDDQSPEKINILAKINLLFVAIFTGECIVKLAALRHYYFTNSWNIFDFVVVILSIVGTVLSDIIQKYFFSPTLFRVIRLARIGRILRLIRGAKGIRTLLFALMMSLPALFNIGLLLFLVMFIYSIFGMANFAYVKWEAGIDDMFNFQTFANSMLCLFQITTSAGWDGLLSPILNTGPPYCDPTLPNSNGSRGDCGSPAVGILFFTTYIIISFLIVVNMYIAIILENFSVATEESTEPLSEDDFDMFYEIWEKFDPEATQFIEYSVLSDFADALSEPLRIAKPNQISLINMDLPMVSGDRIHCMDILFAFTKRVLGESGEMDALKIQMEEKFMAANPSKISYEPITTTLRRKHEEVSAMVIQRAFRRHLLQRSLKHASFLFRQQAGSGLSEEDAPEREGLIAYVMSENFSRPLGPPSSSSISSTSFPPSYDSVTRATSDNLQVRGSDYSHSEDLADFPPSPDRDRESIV
Chain of Cyclin-dependent kinase 7 (P50613 whole entry): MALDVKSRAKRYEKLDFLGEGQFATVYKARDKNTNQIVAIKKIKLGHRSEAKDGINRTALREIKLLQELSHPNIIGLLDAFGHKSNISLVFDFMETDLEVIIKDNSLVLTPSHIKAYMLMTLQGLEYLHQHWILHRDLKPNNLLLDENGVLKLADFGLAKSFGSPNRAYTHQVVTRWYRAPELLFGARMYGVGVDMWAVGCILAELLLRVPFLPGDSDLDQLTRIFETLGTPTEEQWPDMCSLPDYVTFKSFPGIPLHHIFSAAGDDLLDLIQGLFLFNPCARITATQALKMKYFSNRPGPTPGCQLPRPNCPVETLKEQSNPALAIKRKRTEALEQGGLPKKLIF

`N#Cc1cccc(-c2c[nH]c3ncnc(N4CCOCC4)c23)c1`: the % of inhibition in data set [1] was -6%.
For `O=C(NOC[C@H](O)CO)c1ccc(F)c(F)c1Nc1ccc(I)cc1F`, in data set [2], the % of control stood at 100%.
With `CC[C@@H]1[C@H](F)C(=O)N[C@@H]1COc1nccc2cc(C(N)=O)c(OC)cc12` [ZIMLOVISERTIB], the % of inhibition in data set [3] came to 11.1%; in data set [4] it was 10.8%.
Compound `CN(C)C/C=C/C(=O)Nc1ccc(C(=O)N2CCCC(Nc3ncc(Cl)c(-c4c[nH]c5ccccc45)n3)C2)cc1` (configuration not stated) yielded a % of control in data set [5] of 87%.
As for `COc1cc(Nc2nc(C)cc(-c3cnn4nc(OC)ccc34)n2)cc(C(F)(F)F)c1`, in data set [6], the % of control amounted to 100%.
The compound `COc1cc(C(=O)N2CC[C@@H](O)[C@@H](N)C2)cc2nc(-c3cc4ccccc4n3CC3CC3)n(C)c12` gave an XC50 on Nav1.5 (SCN5A) of 39.8 µM.
